Data set [1] has as its target T1, cAPK Cα (Homo sapiens, UniProt P17612). Briefly: Competition: displacement of ARC-TAMRA from complex with cAPK Cα, fluorescence anisotropy, LS 55. It counts as binding. Further details: purchased Biaffin AG. How it is done:
A complex was created between 10 nM of ARC-TAMRA and 10 nM of cAPK Cα in 0.500 ml of buffer (50 mM HEPES, 200 mM NaCl, 0.5 g/l BSA, 5 mM DTT, 0.05% TWEEN 20, MilliQ water; pH 7.4). Different compounds were screened for binding to cAPK Cα against fixed concentrations of ARC-TAMRA and cAPK Cα (FIG. 4). 1-3 μl quantities of various dilutions of the solution of the inhibitor were added to 500 μl solution of ARC-TAMRA complex with the kinase and fluorescence anisotropy was measured after each addition of the […] after 10 min delay time.

The next data set deals with PKBb (Homo sapiens, UniProt P31751). Briefly: Kinase selectivity panel, residual activity. The data set is classed as biochemical. The conditions noted are these: 1 μM compound, 50 μM ATP, 30° C. How it is done: (§1) The assay of protein kinases was performed at 30° C. as described previously [Davies et al., Biochem. J. 351 (2000) 95; Murray et al., Biochem. J. 384 (2004) 477]. The results of the testing are expressed as the % of residual activity of the kinase in the presence of the inhibitor at 1 micromolar concentration.
Sequence of PKBb (P31751 whole entry): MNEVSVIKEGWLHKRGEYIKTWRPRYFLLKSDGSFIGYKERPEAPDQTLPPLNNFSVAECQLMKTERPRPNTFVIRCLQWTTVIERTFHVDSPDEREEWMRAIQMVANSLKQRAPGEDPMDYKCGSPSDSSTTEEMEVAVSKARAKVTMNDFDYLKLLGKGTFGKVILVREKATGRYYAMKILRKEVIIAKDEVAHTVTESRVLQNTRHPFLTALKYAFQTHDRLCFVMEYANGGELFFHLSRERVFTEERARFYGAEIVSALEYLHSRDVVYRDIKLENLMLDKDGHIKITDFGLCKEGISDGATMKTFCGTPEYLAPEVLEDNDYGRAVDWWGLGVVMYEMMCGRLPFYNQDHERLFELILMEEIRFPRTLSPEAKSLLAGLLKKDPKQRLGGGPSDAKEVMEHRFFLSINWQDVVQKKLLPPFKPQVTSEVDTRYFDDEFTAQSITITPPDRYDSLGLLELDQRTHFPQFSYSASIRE

A further data set deals with PKBΔph (Homo sapiens, UniProt P31749). Briefly: Kinase selectivity panel, residual activity. The data set is classed as biochemical. The conditions noted are these: 1 μM compound, 5 μM ATP, 30° C. How it is done: as §1
Sequence of PKBΔph (P31749 whole entry, stated change not applied): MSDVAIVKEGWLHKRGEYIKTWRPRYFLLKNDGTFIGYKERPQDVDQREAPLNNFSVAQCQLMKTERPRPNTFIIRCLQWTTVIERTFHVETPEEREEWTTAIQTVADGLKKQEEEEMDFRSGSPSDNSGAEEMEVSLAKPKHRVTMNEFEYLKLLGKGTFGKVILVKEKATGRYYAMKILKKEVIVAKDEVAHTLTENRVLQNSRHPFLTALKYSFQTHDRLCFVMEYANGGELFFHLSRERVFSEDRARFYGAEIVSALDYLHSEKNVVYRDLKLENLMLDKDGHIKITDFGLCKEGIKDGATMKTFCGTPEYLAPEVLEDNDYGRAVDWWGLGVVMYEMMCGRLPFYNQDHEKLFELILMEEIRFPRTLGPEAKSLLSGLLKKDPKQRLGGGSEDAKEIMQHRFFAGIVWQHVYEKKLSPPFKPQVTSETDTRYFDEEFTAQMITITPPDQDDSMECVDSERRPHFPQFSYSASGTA
The next data set addresses PRK2 (Homo sapiens, UniProt Q16513). Briefly: Kinase selectivity panel, residual activity. It counts as biochemical. The method, then: as §1
The target in data set [2] is T1, cAPK Cα. Briefly: High-throughput displacement of ARC-TAMRA from cAPK Cα, PHERAstar.
Method: To determine the inhibition constant (Ki), 3-fold serial dilutions of a given inhibitor are performed analogously as for titration experiments. Before the measurement of fluorescence anisotropies the plate is rotated (400 rpm) for 10 minutes at 30° C.

Some results are limits rather than exact numbers.

Sequence of PRK2 (Q16513 whole entry): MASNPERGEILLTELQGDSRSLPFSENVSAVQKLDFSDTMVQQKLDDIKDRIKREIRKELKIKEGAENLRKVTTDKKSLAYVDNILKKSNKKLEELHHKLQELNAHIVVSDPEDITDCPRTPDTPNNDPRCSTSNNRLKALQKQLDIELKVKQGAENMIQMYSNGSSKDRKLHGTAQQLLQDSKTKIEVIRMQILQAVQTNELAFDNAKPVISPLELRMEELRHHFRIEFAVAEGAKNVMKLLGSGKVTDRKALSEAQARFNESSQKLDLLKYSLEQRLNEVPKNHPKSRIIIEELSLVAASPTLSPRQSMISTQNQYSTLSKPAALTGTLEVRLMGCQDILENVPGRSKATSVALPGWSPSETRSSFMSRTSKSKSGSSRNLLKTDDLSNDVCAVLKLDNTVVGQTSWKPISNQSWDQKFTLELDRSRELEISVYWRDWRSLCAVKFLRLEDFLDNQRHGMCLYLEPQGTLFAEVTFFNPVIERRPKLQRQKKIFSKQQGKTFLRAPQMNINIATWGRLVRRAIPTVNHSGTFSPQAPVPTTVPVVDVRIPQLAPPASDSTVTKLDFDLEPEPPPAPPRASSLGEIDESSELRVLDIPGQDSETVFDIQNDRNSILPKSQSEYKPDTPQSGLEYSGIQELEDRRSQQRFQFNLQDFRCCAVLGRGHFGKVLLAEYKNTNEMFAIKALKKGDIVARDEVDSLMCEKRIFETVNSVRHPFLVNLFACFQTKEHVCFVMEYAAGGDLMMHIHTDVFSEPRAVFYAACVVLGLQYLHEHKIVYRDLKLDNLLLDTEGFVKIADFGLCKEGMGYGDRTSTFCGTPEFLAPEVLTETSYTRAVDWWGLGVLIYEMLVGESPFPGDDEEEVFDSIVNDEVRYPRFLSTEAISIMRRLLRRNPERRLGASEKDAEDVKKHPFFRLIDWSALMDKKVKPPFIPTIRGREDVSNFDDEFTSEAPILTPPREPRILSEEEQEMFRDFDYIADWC

In the case of `N=C(N)NCCC[C@@H](NC(=O)[C@@H](CCCNC(=N)N)NC(=O)[C@@H](CCCNC(=N)N)NC(=O)[C@@H](CCCNC(=N)N)NC(=O)[C@@H](CCCNC(=N)N)NC(=O)[C@@H](CCCNC(=N)N)NC(=O)CCCCCNC(=O)[C@H]1O[C@@H](n2cnc3c(N)ncnc32)[C@H](O)[C@@H]1O)C(N)=O` [Compound 5, AdcAhx(D-Arg)6-NH2], the half-maximal inhibitory concentration (IC50) on cAPK Cα [1] (10 nM ARC-TAMRA, 10 nM cAPK Cα) is 35 nM. In addition, on cAPK Cα [1] (cAPK Cα displacement, read-out: Kd of inhibitor (characterized with the probe)), the dissociation constant Kd came to 2.5 nM. The results for the Ki on cAPK Cα [1] (read-out: Ki (competitive binding)) and at cAPK Cα [2] were 2.5 nM and 1.1 nM, respectively. The remaining activity at 1 µM with PKBb and in the data set with PRK2 was at most 3% in each case. Besides, the residual activity with PKBΔph is reported as at most 3%.
